Test results as given in patent US8415307B1, “Antibiotic compositions for the treatment of gram negative infections” (priority 2010, dated 2013).
*1 amine or outer side, *2 acyl side, *3 side chain or, on linkers, in order; H or OH if unused. Where a SMILES comes first, the peptide text is derived from it. Bridges are numbered along the chain shown (N, C = ends). [ ]: non-standard residue; d: D form. The star is where a group is joined. ξ: configuration not given here. Thr(3ξ) = CC(O)[C@H](N)C(=O)O; NH(2-ClPh) = Clc1ccccc1N*; X1 = CC[C@H](C)CCCCC(=O)*; dDab = NCC[C@@H](N)C(=O)O; Dab = NCC[C@H](N)C(=O)O; CO = O=C([*:1])[*:2]; ξDab = NCCC(N)C(=O)O

How the values were obtained:
K. pneu = assay: MIC50 and MIC90, panel of Gram negative bacterial strains (CLSI broth microdilution); type: cell-based, K. pneumonia; set-up: key to K. pneu MIC50 / K. pneu MIC90: A: a measured MIC value equal to that of polymyxin B; a measured MIC value less than the corresponding MIC value measured for polymyxin B; a measured MIC value greater than the corresponding MIC value measured for polymyxin B; conditions: for K. pneu MIC50 / K. pneu MIC90: class relative to polymyxin B, some strains multi-drug resistant
Protocol: (§1) The potency and spectrum of Compound 5 was studied using a panel of Gram negative bacterial strains.
(§2) MIC testing can be performed according to Clinical and Laboratory Standards Institute (CLSI) M7-A7 (2006) broth microdilution methods. Unless otherwise indicated, MIC values are provided in units of micrograms per milliliter.
(§3) One day prior to testing, individual colonies were isolated by streaking onto rich, non-selective Tryptic Soy agar with 5% lysed sheeps blood (TSAB) with incubation at 35-37° C. for 18-24 hours.
(§4) Cultures were prepared by touching 3-5 colonies into 3 mL of cation-adjusted Mueller Hinton Broth (caMHB) in a 14-mL tube (caMHB was prepared and sterilized according to manufacturer's specifications).
(§5) OD600 of growing cultures was measured and adjusted to approximately 10^5 colony forming units per mL (CFU/mL) in caMHB for MIC inoculation (approximately OD600 0.001).
(§6) Diluted cultures were used to inoculate 50 μL per well in broth microdilution assays (final volume 100 μl per well; compounds were prepared in two-fold dilutions).
(§7) Plates were incubated 16-20 hours at 37° C., with shaking at 200 rpm.
(§8) OD600 was determined for all wells. Growth was defined as OD600>0.1. MICs were defined as the lowest concentration producing no visible turbidity (OD600<0.1).

P. aeruginosa #44 = assay: MICs for P. aeruginosa #44 in the presence of surfactant; type: cell-based; set-up: key: A: a MIC value measurement that is the same as that observed for polymyxin B; a MIC value measured that is lower than the comparable value observed for polymxin B; a MIC value measured that is higher than the comparable value observed for polymyxin B; conditions: class relative to polymyxin B; for MIC P. aeruginosa #44, 10% surfactant: 10% surfactant (Survanta) in caMHB; for MIC P. aeruginosa #44, 40% surfactant: 40% surfactant (Survanta) in caMHB
Protocol: (§9) Antibacterial potency can be assessed by broth microdilution according to CLSI guidelines, plates can be incubated at 37° C., and aeration (rotation at 200 rpm) can be employed. In some assays, surfactant (Survanta, Abbott Laboratories) can be added to give a final concentration of 1, 10 and 40% in caMHB. Native polymyxin A, polymyxin B and the comparator compound of Formula II (polymyxin B decapeptide with an o-chlorophenyl urea tail) were included for comparison.

P. aeruginosa 44 [1] = assay: MIC against the primary screening panel (broth microdilution); type: cell-based; set-up: key: A: a MIC value measurement that is the same as that observed for polymyxin B; a MIC value measured that is lower than the comparable value observed for polymxin B; a MIC value measured that is higher than the comparable value observed for polymyxin B; conditions: class relative to polymyxin B
Protocol: as §9

K. pneumoniae 933 = assay: as above; type: cell-based; set-up: key: A: a MIC value measurement that is the same as that observed for polymyxin B; a MIC value measured that is lower than the comparable value observed for polymxin B; a MIC value measured that is higher than the comparable value observed for polymyxin B; conditions: class relative to polymyxin B
Protocol: as §9

A. baumannii 1570 = assay: as above; type: cell-based; set-up: key: A: a MIC value measurement that is the same as that observed for polymyxin B; a MIC value measured that is lower than the comparable value observed for polymxin B; a MIC value measured that is higher than the comparable value observed for polymyxin B; conditions: class relative to polymyxin B
Protocol: as §9

[2] = test system: K. pneumoniae 1800 (PMX-resistant); assay: as above; type: cell-based; set-up: key: A: a MIC value measurement that is the same as that observed for polymyxin B; a MIC value measured that is lower than the comparable value observed for polymxin B; a MIC value measured that is higher than the comparable value observed for polymyxin B; conditions: class relative to polymyxin B
Protocol: as §9

E. coli [3] = assay: MIC50 and MIC90, panel of Gram negative bacterial strains (CLSI broth microdilution); type: cell-based; set-up: key to E. coli MIC50 / E. coli MIC90: A: a measured MIC value equal to that of polymyxin B; a measured MIC value less than the corresponding MIC value measured for polymyxin B; a measured MIC value greater than the corresponding MIC value measured for polymyxin B; conditions: for E. coli MIC50 / E. coli MIC90: class relative to polymyxin B, some strains multi-drug resistant
Protocol: as §1, §2, §3, §4, §5, §6, §7, §8

P. aeruginosa 44 [4] = assay: Neutropenic mouse lung infection model; type: in vivo; conditions: for Lungs cleared within one log10 of limit of detection: mouse lung model, 8 through 20 mg/kg dose levels
Protocol: Compound of Formula (Ia) was tested in a murine thigh model. For the thigh model, female CD-1 mice were rendered neutropenic by IP injection on days −4 and −1 with 150 and 100 mg/kg cyclophosphamide, respectively. On day 0 mice were infected with 1×10^7 colony-forming units (cfu) of A. baumannii 1570 in one thigh muscle, and then administered compound SC in a dose ranging from 2 to 12 mg/kg at 1 and 6 hours post-infection.
The mouse lung model was run in the same manner as the thigh infection model, except that mice were infected IN with 1×10^7 cfu of P. aeruginosa 44 on day 0. Doses administered in the lung study ranged from 8 to 20 mg/kg. The ED−3log10 was based on cfu determination from the lung tissue 24 hours post-infection.

A. baum = assay: MIC50 and MIC90, panel of Gram negative bacterial strains (CLSI broth microdilution); type: cell-based, A. baumanni; set-up: key to A. baum MIC50 / A. baum MIC90: A: a measured MIC value equal to that of polymyxin B; a measured MIC value less than the corresponding MIC value measured for polymyxin B; a measured MIC value greater than the corresponding MIC value measured for polymyxin B; conditions: for A. baum MIC50 / A. baum MIC90: class relative to polymyxin B, some strains multi-drug resistant
Protocol: as §1, §2, §3, §4, §5, §6, §7, §8

P. aeru = assay: as above; type: cell-based, P. Aeruginosa; set-up: key to P. aeru MIC50 / P. aeru MIC90: A: a measured MIC value equal to that of polymyxin B; a measured MIC value less than the corresponding MIC value measured for polymyxin B; a measured MIC value greater than the corresponding MIC value measured for polymyxin B; conditions: for P. aeru MIC50 / P. aeru MIC90: class relative to polymyxin B, some strains multi-drug resistant
Protocol: as §1, §2, §3, §4, §5, §6, §7, §8

[5] = Acute toxicity testing in rats; type: in vivo, Sprague-Dawley rat
Protocol: One female Sprague-Dawley rat was administered a 1 mg/kg dose of the test Compound 5. Clinical observations were taken immediately following the administration of compound and at 0.5, 1, 2 and 4 hours post-dose.

P. aeruginosa = assay: MIC50-90 against small panels (n = 35); type: cell-based; set-up: key: A: a MIC value measurement that is the same as that observed for polymyxin B; a MIC value measured that is lower than the comparable value observed for polymxin B; a MIC value measured that is higher than the comparable value observed for polymyxin B; conditions: small panel n = 35; class relative to polymyxin B
Source text: (§10) MIC's refer to the concentration of each antimicrobial agent required to inhibit the growth of a bacterial isolate, as well as the corresponding concentrations required to inhibit 50% and 90% of each group of microorganisms tested [MIC50 and MIC90, respectively, consistent with definitions in the “Instructions to Authors” for Antimicrobial Agents and Chemotherapy (Antimicrobial Agents and Chemotherapy, January 2010, p. 1-23, Vol. 54, No. 1, incorporated herein by reference)]. When only up to nine isolates of a species are tested, MIC's are reported as the MIC range of each antimicrobial agent tested. MIC values provided as numerical ranges for testing of a single bacterial strain indicate the range of MIC values obtained in repeated tests of the indicated bacteria strain.
as §9

E. coli [6] = assay: MIC50-90 against small panels (n = 35); type: cell-based; set-up: key: A: a MIC value measurement that is the same as that observed for polymyxin B; a MIC value measured that is lower than the comparable value observed for polymxin B; a MIC value measured that is higher than the comparable value observed for polymyxin B; conditions: small panel n = 35; class relative to polymyxin B
Source text: as §10, §9

K. pneumoniae = assay: MIC50-90 against small panels (n = 35); type: cell-based; set-up: key: A: a MIC value measurement that is the same as that observed for polymyxin B; a MIC value measured that is lower than the comparable value observed for polymxin B; a MIC value measured that is higher than the comparable value observed for polymyxin B; conditions: small panel n = 35; class relative to polymyxin B
Source text: as §10, §9

A. baumannii = assay: MIC50-90 against small panels (n = 35); type: cell-based; set-up: key: A: a MIC value measurement that is the same as that observed for polymyxin B; a MIC value measured that is lower than the comparable value observed for polymxin B; a MIC value measured that is higher than the comparable value observed for polymyxin B; conditions: small panel n = 35; class relative to polymyxin B
Source text: as §10, §9

[7] = 1 mg/kg i.v., female Sprague-Dawley rat

Row | Compound | K. pneu MIC50 (K. pneu) | K. pneu MIC90 (K. pneu) | MIC P. aeruginosa #44, 0% surfactant (P. aeruginosa #44) | MIC P. aeruginosa #44, 10% surfactant (P. aeruginosa #44) | MIC P. aeruginosa #44, 40% surfactant (P. aeruginosa #44) | MIC P. aeruginosa 44 (P. aeruginosa 44 [1]) | MIC K. pneumoniae 933 (K. pneumoniae 933) | MIC A. baumannii 1570 (A. baumannii 1570) | MIC K. pneumoniae 1800 (PMX-resistant) [2] | E. coli MIC50 (E. coli [3]) | E. coli MIC90 (E. coli [3]) | Lungs cleared within one log10 of limit of detection (P. aeruginosa 44 [4]) | A. baum MIC50 (A. baum) | A. baum MIC90 (A. baum) | P. aeruginosa MIC50 (P. aeruginosa) | P. aeruginosa MIC90 (P. aeruginosa) | E. coli MIC50 (E. coli [6]) | E. coli MIC90 (E. coli [6]) | K. pneumoniae MIC50 (K. pneumoniae) | K. pneumoniae MIC90 (K. pneumoniae) | further results
1 | CC(C)C[C@H]1NC(=O)[C@H](CCN)NC(=O)[C@@H](NC(=O)[C@@H](CCN)NC(=O)[C@@H](NC(=O)[C@H](CCN)NC(=O)[C@H]2C[C@@H]2c2ccccc2)C(C)O)CCNC(=O)[C@H](C(C)O)NC(=O)[C@H](CCN)NC(=O)[C@H](CCN)NC(=O)[C@H](C(C)O)NC1=O (single isomer, unassigned) [Compound 5] | C | C | C | B | B | C | A | C | C | C | A | Lungs cleared within one log10 of limit of detection | C | C | A | C | C | A | C | C | activity against K. pneumonia isolates (K. pneu): active; activity against E. coli isolates (E. coli [3]): active; ED−3log10 (P. aeruginosa 44 [4]; neutropenic mouse lung, P. aeruginosa 44, SC, BID×1d, cfu 24 hours post-infection, experiment with Formula (Ia)): 6.35 mg/kg; activity against A. baumanni isolates (A. baum): active; activity against P. Aeruginosa isolates (P. aeru): active; P. aeru MIC50 (P. aeru): A; P. aeru MIC90 (P. aeru): C; Acute (anaphylactoid) observations ([5]; 1 mg/kg i.v., 1 female Sprague-Dawley rat): anaphylactoid response was observed; Clinical signs by 0.5 hours [5, 7]: these signs diminished, but the rat remained hypoactive; Clinical signs by 1 hour [5, 7]: no clinical signs and appeared normal; Clinical signs immediately following the dose [5, 7]: flushed ears, abnormal gait, hypoactivity and squinty eyes; A. baumannii MIC50 (A. baumannii): C; A. baumannii MIC90 (A. baumannii): C
2 | CC(C)C[C@@H]1NC(=O)[C@@H](Cc2ccccc2)NC(=O)[C@H](CCN)NC(=O)C(NC(=O)[C@H](CCN)NC(=O)[C@@H](NC(=O)[C@H](CCN)NC(=O)Nc2ccccc2Cl)C(C)O)CCNC(=O)[C@H](C(C)O)NC(=O)[C@H](CCN)NC(=O)C(CCN)NC1=O (stereo partly shown) [Formula (II) comparator] ({NH(2-ClPh)-CO}-[Dab][Thr(3ξ)][Dab][ξDab][Dab][dF]L[ξDab][Dab][Thr(3ξ)]; lactam 4-C) | C | C | C | B | A | C | C | C | C | C | C | not seen | C | C | B | A | C | C | C | C | P. aeru MIC50 (P. aeru; listed as 2): B and A; P. aeru MIC90 (P. aeru; listed as 2): A and C; A. baumannii MIC50 (A. baumannii): C; A. baumannii MIC90 (A. baumannii): C
3 | CC[C@H](C)CCCCC(=O)N[C@@H](CCN)C(=O)N[C@H](C(=O)N[C@H](CCN)C(=O)N[C@H]1CCNC(=O)[C@H]([C@@H](C)O)NC(=O)[C@H](CCN)NC(=O)[C@H](CCN)NC(=O)[C@H]([C@@H](C)O)NC(=O)[C@@H](CC(C)C)NC(=O)[C@H](CCN)NC1=O)[C@@H](C)O [Native Polymyxin A, Polymyxin A] (X1-[Dab]T[dDab][Dab][Dab][dL]T[Dab][Dab]T; lactam 4-C) | C | C | C | B | B | A | B | C | C | B | A | not observed | A | A | A | C | B | A | C | C | P. aeru MIC50 (P. aeru): A; P. aeru MIC90 (P. aeru): C; Clinical signs ([5]; IV dose of 1 mg/kg, similar experiment): no clinical signs were observed; A. baumannii MIC50 (A. baumannii): A; A. baumannii MIC90 (A. baumannii): A
